The values below are quoted from earlier work in article PMC4512625, “Critical role of the SPAK protein kinase CCT domain in controlling blood pressure” (Human Molecular Genetics, 2015).

The subject of data set [1] is human OSR1 CCT domain, Leu473 to Ala. The settings on record: mutant versus wild type. The text has this:
Consistent with this, mutation of Leu473 to Ala reduced binding of OSR1 to RFXI WNK4 peptide over 100-fold ([40]).

Data set [2] concerns NKCC1 in the hypothalamic paraventricular nucleus. The settings on record: intracranial administration, spontaneously hypertensive rats. The text has this:
The altered shape of the arterial pressure waveform in our […] mice (Fig. 5B) is consistent with increased vascular compliance and reduced wave reflection in the periphery as compared with the wild-type animals. This may be explained in part by a diminished cardiac output arising from possible reductions in cardiac contractility owing to loss of NKCC1 activity in the heart ([49]) (Fig. 2B) and the lower heart rates of the […] mice (Fig. 5A), because augmentation is negatively correlated with heart rate in humans ([50]). It has also been previously shown that […] ...

Consider “GRFQVT [RFXI WNK4 peptide, RFXI motif-containing peptide derived from WNK4, complexed to the human OSR1 CCT domain]”, for which the “reduction of binding of OSR1 to RFXI WNK4 peptide by mutation of Leu473 to Ala” value in data set [1] was “over 100 fold”.
With `CCCCNc1cc(C(=O)O)cc(S(N)(=O)=O)c1Oc1ccccc1` [bumetanide], in data set [2], the heart rate result is on record as “lower their heart rates” and the sympathetic vasomotor tone entry is reported as “reduce sympathetic vasomotor tone”.
